Reference: patent US20260234107A1, “TRYPTAMINES AND METHODS OF TREATING MOOD DISORDERS” (priority 2022, published 2026)
pEC50: −log10 of the molar value. Where two headings read alike, the source gives them in different places.

What was measured:
[1] = system: monoamine oxidase A and B (MAO-A and MAO-B); assay: Stability in the presence of monoamine oxidases (human liver mitochondria preparation); design: half-life / microsomal CLint: dose or concentration left out as unconfirmed; details: for Remaining (t = 60 min) / half-life / microsomal CLint: human liver mitochondria; for half-life / microsomal CLint: human, pH 7.4; for stability in the presence of MAO (in words): human liver mitochondria preparation
Description: Liver Mitochondria Incubations. Human liver mitochondria (Xenotech H0610.M) were used.

5-HT2B = target: T1, 5-HT2B (Homo sapiens, UniProt P41595); assay: FLIPR Ca2+ flux agonist assay at 5-HT2B; format: cell-based; details: for 5-HT2B % Act @ Max Dose: Ca2+ flux, HEK293, max dose
T1 construct: host or cells: HEK293
T1 sequence (P41595 whole entry, species assumed): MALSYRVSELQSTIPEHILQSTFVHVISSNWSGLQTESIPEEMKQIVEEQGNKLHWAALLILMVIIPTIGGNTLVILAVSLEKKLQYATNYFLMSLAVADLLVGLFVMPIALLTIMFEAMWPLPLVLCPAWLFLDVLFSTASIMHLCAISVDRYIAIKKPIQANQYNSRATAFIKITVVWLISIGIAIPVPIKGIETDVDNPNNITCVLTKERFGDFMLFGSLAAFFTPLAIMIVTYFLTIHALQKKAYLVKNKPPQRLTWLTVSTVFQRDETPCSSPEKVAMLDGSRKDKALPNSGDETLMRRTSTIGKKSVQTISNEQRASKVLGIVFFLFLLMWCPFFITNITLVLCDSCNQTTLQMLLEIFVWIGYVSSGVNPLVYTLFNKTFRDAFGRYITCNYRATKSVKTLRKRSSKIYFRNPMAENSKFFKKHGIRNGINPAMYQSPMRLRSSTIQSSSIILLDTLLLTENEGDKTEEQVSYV
Description: (§1) A solution of 250 mM probenecid in 1 mL FLIPR assay buffer was prepared fresh. This was combined with a fluorescent dye (Fluo-4 Direct™) to make a final assay concentration of 2.5 mM. […] The fluorescent dye was then added to the assay plate along with assay buffer to a final volume of 40 μL. The cell plate was incubated for 50 min at 37° C. and 5% CO2 and placed into the FLIPR Tetra along with the compound plate. 10 μL of references and compounds were then transferred from the compound plate into the cell plate and the fluorescent signal was read.

5-HT1A = target: T2, 5-HT1A (Homo sapiens, UniProt P08908); assay: FLIPR Ca2+ flux agonist assay at 5-HT1A; format: cell-based; details: for 5-HT1A % Act @ Max Dose: Ca2+ flux, CHO cells
T2 construct: host or cells: CHO cells
T2 sequence (P08908 1-422): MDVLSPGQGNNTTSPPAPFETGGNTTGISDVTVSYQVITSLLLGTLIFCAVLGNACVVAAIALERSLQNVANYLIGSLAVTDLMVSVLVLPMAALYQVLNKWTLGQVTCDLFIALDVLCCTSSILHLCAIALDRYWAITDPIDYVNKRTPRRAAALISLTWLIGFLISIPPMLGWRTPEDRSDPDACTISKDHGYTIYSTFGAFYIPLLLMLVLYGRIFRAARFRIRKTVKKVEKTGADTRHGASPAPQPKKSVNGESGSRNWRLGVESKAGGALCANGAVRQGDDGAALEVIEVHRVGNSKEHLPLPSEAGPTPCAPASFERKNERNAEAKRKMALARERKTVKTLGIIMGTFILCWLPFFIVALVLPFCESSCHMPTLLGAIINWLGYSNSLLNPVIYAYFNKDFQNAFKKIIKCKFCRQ
Description: as §1

[2] = Stability in mouse brain homogenate; format: in vitro ADME, male CD-1 mice; details: mouse brain homogenate, 1 μM, 37° C.; for half-life at 1 µM: male, CD-1
Description: Disclosed compounds were tested for stability in mouse brain homogenate (Table 7). There was widely variable stability among the test compounds under the conditions of the experiment.
(§2) Mouse Brain Homogenate Stability. Frozen mouse brain homogenate (pooled from male CD-1 mice, BioreclamationIVT, MSE00BRAINMZA) was thawed in a water bath at 37° C. immediately prior to use. Positive controls and test compounds (final concentration in incubation medium=1 μM for test compounds and 2 μM for controls, all with 2% DMSO) were incubated in duplicate for each time point (0, 10, 30, 60, and 120 min) in the mouse brain homogenate at a total reaction volume of 100 μL at 37° C. At the end of each incubation period, reactions were immediately quenched with 400 μL of acetonitrile containing internal standard (200 ng/mL tolbutamine and 200 ng/mL labetalol) and mixed thoroughly. Plates were then sealed, shaken for 20 min, and centrifuged at 4,000 rpm and 4° C. for 20 min. Aliquots of 50 μL of each supernatant were diluted into 100 μL of water and the mixtures were then shaken again for 10 min.

[3] = Stability in rat brain homogenate; format: in vitro ADME, male Sprague Dawley rats; details: rat brain homogenate, 1 μM, 37° C.; for half-life at 1 µM: male, Sprague Dawley
Description: Disclosed compounds were tested for stability in rat brain homogenate (Table 8). There was widely variable stability among the test compounds under the conditions of the experiment.
as §2, with “Rat” for “Mouse”, “rat” for “mouse”, “Sprague Dawley rats,” for “CD-1 mice,”, “RAT00BRAINMZA)” for “MSE00BRAINMZA)”

5-HT2A = 5-HT2A (Homo sapiens, UniProt P28223); assay: FLIPR Ca2+ flux agonist assay at 5-HT2A; format: cell-based; design: host or cells: HEK293; details: for 5-HT2A % Act @ Max Dose: HEK293, max dose
Chain of 5-HT2A (P28223 whole entry): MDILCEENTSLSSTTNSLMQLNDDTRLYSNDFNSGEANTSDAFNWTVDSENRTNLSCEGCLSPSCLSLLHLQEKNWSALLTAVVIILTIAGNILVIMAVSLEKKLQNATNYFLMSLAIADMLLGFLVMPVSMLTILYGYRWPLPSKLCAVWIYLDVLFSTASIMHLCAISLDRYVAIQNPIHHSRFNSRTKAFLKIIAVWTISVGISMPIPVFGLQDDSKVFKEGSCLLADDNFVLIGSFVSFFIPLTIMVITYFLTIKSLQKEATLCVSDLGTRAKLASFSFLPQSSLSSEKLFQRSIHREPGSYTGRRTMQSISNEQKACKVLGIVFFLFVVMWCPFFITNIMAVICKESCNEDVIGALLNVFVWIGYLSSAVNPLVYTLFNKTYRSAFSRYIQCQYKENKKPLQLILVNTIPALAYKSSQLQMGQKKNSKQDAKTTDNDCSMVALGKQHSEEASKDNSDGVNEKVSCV
Description: as §1

[4] = Metabolic stability in human liver microsomes (HLM); design: microsomal CLint / half-life: dose or concentration left out as unconfirmed; details: both, human, pooled human liver microsomes, pH 7.4
[5] = human liver mitochondria 0.30 mg protein/mL, 37° C.
[6] = Ca2+ flux, HEK293, read-out: 5-HT2A EC50

SMILES	Remaining (t = 60 min) [1]	half-life [1]	microsomal CLint [1]	pEC50 (5-HT2B)	5-HT2B % Act @ Max Dose (5-HT2B)	pEC50 (5-HT1A)	5-HT1A % Act @ Max Dose (5-HT1A)	half-life at 1 µM [2]	% Compound Remaining (after 120 min) [2]	half-life at 1 µM [3]	% Compound Remaining (after 120 min) [3]	pEC50 (5-HT2A)	5-HT2A % Act @ Max Dose (5-HT2A; Ca2+ flux)	half-life [4]	microsomal CLint [4]	also measured
NCCc1c[nH]c2cccc(O)c12 [Compound 1, 3-(2-aminoethyl)-1H-indol-4-ol]	51.1%	70.5 min	32.8 µL/min/mg	6.82	83.98%	4.03	49.9%	12.6 min	0.0%	10 min	0.0%	7.48	99.2%	34.3 min	40.4 µL/min/mg	
COc1ccc2[nH]cc(CCN(C)C)c2c1 [Compound 5-MeO-DMT, reference compound]	47.1%				20.5%		78.8%		91.2%		0.3%					CLint(MAO) [1, 5]: 43.6 µL/min/mg; t1/2 [1, 5]: 52.9 min; stability in the presence of MAO (in words) [1]: rapidly metabolized by MAO; t1/2 [2]: >289.1 min; t1/2 [3]: 14.4 min
Oc1cccc2[nH]cc(CCNCCF)c12 [Compound 7, 3-(2-((2-fluoroethyl)amino)ethyl)-1H-indol-4-ol]	85.2%	> 145 min	< 15.9 µL/min/mg	6.43	20.76%	< 4.00	42.13%	177 min	61.8%	> 289 min	77.1%	7.33	86.8%	77 min	18 µL/min/mg	
C=CCNCCc1c[nH]c2cccc(O)c12 [Compound 23, 3-(2-(allylamino)ethyl)-1H-indol-4-ol]	83.5%	> 145 min						127 min	49.6%	126 min	52.4%			118 min	11.8 µL/min/mg	
C#CCNCCc1c[nH]c2cccc(O)c12 [Compound 24, 3-(2-(prop-2-yn-1-ylamino)ethyl)-1H-indol-4-ol]	87.2%	> 145 min	< 15.9 µL/min/mg	7.05	48.26%	< 4.00	−3.14%	97.3 min	40.5%	92.4 min	41.9%	7.70	96.07%	92.4 min	15 µL/min/mg	
CNCCc1c[nH]c2ccc(F)c(O)c12 [Compound 26, 5-fluoro-3-(2-(methylamino)ethyl)-1H-indol-4-ol]	0.1%	6.3 min	369 µL/min/mg		13.87%	5.46	74.21%	1.7 min	0%	2.2 min	0%	7.68	86.9%	0.9 min	1520 µL/min/mg	
Oc1c(F)ccc2[nH]cc(CCNC3CC3)c12 [Compound 27, 3-(2-(cyclopropylamino)ethyl)-5-fluoro-1H-indol-4-ol]	32.1%	36.2 min	63.9 µL/min/mg	8.02	36.08%	5.91	84.02%	69.6 min	29.4%	15.1 min	0.4%			19.8 min	70 µL/min/mg	stability in the presence of MAO (in words) [1]: intermediate stability; pEC50 (5-HT2A; [6]): 8.13
CCNCCc1c[nH]c2cc(F)cc(O)c12 [Compound 29, 3-(2-(ethylamino)ethyl)-6-fluoro-1H-indol-4-ol]	99.1%	> 145 min	< 15.9 µL/min/mg		12.18%		16.22%	59.9 min	29.9%	113 min	51.9%	7.76	80.80%	> 145 min	< 9.6 µL/min/mg	
NCCc1c[nH]c2ccc(F)c(O)c12 [Compound 30, 3-(2-aminoethyl)-5-fluoro-1H-indol-4-ol]	0.0%	6.5 min	356 µL/min/mg	8.34	95.46%	5.28	73.4%	6.4 min	0%	3.9 min	0.1%			9.3 min	149 µL/min/mg	pEC50 (5-HT2A; [6]): 8.39
